Source: ChEMBL document CHEMBL1201862, “PubChem BioAssay data set” (2004)
Each block holds one compound with its values, some of them ahead of it. The source made the active and inactive calls.

What was measured:
Type in all cases: functional
[1] = molecular target: Dual specificity protein kinase CLK4 (Homo sapiens, UniProt Q9HAZ1)
[2] = molecular target: Dual specificity protein kinase CLK2 (Homo sapiens, UniProt P49760)
[3] = molecular target: Dual specificity tyrosine-phosphorylation-regulated kinase 1A (Homo sapiens, UniProt Q13627);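 also: measured against DYRK1A as one member of a broad kinome profiling panel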
[4] = molecular target: Rho-associated protein kinase 1 (Homo sapiens, UniProt Q13464);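 also: measured within a broad kinome-wide panel profiling many kinases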
Rho-associated protein kinase 1, sequence (Q13464 whole entry): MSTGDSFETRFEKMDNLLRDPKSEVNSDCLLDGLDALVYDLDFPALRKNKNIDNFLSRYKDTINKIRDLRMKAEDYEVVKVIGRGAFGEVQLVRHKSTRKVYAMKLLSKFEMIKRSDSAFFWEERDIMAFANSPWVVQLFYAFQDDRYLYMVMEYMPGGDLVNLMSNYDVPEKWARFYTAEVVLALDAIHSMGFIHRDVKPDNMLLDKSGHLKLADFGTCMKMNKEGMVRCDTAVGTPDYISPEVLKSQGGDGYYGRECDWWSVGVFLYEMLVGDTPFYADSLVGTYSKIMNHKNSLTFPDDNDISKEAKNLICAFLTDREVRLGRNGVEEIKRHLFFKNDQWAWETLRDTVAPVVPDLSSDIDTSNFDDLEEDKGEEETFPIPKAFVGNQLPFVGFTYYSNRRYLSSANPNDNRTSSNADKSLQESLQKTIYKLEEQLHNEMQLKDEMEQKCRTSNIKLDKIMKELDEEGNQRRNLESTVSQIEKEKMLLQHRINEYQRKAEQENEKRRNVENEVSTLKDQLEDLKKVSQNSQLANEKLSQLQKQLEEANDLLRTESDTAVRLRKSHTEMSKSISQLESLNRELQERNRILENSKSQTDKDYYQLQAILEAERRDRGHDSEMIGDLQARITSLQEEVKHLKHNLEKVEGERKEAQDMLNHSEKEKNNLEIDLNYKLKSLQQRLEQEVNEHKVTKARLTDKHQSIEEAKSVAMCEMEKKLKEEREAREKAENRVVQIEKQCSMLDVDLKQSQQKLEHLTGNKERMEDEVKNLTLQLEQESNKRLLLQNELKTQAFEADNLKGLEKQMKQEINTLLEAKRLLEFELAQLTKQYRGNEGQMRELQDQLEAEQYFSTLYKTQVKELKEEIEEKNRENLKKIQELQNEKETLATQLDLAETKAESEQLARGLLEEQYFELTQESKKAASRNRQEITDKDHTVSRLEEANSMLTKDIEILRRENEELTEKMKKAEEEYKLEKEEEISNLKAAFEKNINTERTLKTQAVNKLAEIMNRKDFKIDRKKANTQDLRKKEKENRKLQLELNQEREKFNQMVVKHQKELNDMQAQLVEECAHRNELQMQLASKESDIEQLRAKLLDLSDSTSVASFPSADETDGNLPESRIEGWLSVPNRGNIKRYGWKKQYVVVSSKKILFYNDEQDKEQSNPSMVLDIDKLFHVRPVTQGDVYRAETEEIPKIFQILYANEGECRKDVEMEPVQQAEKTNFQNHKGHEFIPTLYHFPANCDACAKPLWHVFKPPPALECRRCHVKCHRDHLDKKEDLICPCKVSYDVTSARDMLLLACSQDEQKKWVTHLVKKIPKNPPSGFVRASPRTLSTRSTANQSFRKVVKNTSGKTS

[5] = molecular target: Serine/threonine-protein kinase D3 (Homo sapiens, UniProt O94806);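 also: determined within a kinase panel screen, with PRKCN as the panel member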
[6] = molecular target: Macrophage colony-stimulating factor 1 receptor (Homo sapiens, UniProt P07333);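 also: value comes from the Navigating the Kinome screening panel, CSF1R member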
[7] = molecular target: Ribosomal protein S6 kinase alpha-3 (Homo sapiens, UniProt P51812);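 also: measured within a kinome-wide profiling panel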
Ribosomal protein S6 kinase alpha-3, sequence (P51812 whole entry): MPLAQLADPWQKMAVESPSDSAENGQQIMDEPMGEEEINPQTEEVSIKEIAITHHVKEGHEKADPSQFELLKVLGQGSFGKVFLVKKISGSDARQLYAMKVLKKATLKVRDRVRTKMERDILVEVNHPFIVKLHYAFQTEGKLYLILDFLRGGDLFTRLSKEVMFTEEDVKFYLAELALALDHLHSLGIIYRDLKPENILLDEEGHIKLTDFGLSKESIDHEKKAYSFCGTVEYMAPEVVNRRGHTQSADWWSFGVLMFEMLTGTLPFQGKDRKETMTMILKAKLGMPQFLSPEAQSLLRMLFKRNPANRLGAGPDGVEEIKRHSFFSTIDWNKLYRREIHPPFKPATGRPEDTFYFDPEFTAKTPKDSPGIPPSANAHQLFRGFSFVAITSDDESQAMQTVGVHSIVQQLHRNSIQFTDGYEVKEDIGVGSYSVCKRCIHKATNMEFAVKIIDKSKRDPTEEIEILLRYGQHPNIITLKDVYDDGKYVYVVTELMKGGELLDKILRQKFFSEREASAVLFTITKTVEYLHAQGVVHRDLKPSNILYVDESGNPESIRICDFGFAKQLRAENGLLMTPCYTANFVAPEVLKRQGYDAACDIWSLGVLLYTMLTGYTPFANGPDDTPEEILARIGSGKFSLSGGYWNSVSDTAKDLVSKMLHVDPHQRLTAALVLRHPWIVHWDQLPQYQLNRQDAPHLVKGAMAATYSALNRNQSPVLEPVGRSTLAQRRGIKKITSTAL

[8] = molecular target: Serine/threonine-protein kinase D2 (Homo sapiens, UniProt Q9BZL6);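 also: measured against PRKD2 as one member of a kinome-wide kinase profiling panel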
[9] = molecular target: Interleukin-1 receptor-associated kinase 4 (Homo sapiens, UniProt Q9NWZ3)
Interleukin-1 receptor-associated kinase 4, sequence (Q9NWZ3 whole entry): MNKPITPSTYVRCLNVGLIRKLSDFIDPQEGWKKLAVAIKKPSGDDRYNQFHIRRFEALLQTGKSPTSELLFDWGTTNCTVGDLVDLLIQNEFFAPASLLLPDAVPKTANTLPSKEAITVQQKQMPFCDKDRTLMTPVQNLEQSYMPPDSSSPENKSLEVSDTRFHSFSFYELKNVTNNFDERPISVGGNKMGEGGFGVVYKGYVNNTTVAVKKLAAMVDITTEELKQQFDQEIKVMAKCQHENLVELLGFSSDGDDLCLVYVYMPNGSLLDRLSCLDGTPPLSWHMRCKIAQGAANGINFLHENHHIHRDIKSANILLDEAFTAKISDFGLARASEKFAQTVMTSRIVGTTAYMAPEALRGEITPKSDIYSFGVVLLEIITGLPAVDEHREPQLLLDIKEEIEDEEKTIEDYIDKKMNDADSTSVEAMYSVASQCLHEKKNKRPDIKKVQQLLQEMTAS

[10] = molecular target: Serine/threonine-protein kinase Nek4 (Homo sapiens, UniProt P51957)
Serine/threonine-protein kinase Nek4, sequence (P51957 whole entry): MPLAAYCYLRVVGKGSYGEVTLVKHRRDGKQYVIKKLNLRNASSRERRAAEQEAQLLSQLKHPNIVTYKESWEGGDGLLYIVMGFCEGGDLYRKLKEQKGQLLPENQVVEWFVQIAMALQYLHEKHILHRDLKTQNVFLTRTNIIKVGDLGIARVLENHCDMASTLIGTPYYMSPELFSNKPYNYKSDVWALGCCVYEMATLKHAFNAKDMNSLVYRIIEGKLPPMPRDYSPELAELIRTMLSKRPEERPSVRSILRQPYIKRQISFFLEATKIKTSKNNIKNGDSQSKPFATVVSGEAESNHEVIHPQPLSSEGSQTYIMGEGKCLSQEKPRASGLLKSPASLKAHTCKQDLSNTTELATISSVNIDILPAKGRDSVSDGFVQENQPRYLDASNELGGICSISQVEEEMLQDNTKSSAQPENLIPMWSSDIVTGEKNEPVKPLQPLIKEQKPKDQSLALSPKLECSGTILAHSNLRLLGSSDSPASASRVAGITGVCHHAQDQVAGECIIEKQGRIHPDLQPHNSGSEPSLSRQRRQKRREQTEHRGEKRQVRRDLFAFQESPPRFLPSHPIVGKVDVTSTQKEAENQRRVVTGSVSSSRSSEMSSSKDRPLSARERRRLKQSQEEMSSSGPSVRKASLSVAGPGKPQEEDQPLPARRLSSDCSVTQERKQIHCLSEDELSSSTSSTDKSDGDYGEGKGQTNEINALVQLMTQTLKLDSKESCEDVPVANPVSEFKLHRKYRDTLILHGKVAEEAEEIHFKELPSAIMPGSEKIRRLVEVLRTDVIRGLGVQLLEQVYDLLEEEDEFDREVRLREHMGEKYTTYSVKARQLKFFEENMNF

[11] = molecular target: Glycogen synthase kinase-3 beta (Homo sapiens, UniProt P49841);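 also: value comes from a broad kinome profiling panel, with GSK3B as the panel member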
Glycogen synthase kinase-3 beta, sequence (P49841 whole entry): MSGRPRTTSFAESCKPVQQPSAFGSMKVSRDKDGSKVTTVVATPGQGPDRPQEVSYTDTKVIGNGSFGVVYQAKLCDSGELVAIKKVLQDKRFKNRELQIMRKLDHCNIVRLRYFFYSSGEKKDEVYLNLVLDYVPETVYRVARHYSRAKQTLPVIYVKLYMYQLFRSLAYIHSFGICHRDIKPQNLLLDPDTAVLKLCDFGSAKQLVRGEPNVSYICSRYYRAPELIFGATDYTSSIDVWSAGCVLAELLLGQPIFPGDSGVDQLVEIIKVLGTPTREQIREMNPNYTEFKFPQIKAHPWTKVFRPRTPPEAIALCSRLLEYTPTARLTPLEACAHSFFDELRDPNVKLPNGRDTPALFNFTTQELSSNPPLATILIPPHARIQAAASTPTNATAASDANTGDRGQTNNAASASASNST

[12] = molecular target: Casein kinase II subunit alpha (Homo sapiens, UniProt P68400)
Casein kinase II subunit alpha, sequence (P68400 whole entry): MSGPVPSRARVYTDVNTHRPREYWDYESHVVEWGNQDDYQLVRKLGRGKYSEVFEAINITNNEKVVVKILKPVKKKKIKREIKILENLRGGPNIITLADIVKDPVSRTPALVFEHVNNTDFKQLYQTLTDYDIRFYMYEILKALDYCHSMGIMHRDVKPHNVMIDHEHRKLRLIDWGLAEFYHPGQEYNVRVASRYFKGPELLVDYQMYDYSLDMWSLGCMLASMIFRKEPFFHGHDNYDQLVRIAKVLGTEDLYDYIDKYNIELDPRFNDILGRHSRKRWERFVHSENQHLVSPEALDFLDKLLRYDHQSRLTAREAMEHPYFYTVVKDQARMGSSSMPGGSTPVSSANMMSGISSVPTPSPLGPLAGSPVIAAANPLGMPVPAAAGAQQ

[13] = molecular target: Sphingosine 1-phosphate receptor 2 (Homo sapiens, UniProt O95136); experiment: Late-stage fluorescence-based dose-response cell-based counterscreen assay to identify agonists of the Sphingosine 1-Phosphate Receptor 3 (S1P3): Sphingosine 1-Phosphate Receptor 2 (S1P2) agonist assay.
Sphingosine 1-phosphate receptor 2, sequence (O95136 whole entry): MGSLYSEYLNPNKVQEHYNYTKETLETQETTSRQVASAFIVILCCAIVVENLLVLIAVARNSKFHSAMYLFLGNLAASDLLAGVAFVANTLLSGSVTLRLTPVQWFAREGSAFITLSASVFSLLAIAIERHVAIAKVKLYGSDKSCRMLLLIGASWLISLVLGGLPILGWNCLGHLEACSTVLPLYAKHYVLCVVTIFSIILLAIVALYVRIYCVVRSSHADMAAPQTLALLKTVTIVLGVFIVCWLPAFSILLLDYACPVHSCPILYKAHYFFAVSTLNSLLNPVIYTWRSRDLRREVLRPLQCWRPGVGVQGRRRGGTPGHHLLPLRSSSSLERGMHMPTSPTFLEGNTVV

[14] = molecular target: Sphingosine 1-phosphate receptor 4 (Homo sapiens, UniProt O95977); experiment: Late-stage fluorescence-based dose-response cell-based counterscreen assay to identify agonists of the Sphingosine 1-Phosphate Receptor 3 (S1P3): Sphingosine 1-Phosphate Receptor 4 (S1P4) agonist assay.
[15] = molecular target: T1, High affinity choline transporter 1 (Homo sapiens, UniProt Q9GZV3); experiment: human choline transporter blockers, potency – cell-based, 5-point CRC, membrane potential dye, dose response (AID 504840)
T1 sequence (Q9GZV3 whole entry): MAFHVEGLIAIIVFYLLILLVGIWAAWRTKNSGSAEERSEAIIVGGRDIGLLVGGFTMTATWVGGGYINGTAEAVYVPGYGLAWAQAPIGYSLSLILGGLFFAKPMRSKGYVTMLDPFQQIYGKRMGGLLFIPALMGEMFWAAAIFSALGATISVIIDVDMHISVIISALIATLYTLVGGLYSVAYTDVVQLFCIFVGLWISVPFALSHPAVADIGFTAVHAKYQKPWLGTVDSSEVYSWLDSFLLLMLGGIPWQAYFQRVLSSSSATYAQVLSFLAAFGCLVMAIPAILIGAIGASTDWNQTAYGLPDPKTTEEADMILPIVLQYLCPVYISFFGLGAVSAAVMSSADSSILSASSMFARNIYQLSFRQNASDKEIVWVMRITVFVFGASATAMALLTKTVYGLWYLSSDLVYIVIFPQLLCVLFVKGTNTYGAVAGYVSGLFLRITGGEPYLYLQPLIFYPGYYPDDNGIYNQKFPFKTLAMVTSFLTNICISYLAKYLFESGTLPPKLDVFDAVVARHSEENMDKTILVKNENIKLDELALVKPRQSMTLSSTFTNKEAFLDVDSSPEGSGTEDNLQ

[16] = molecular target: T1, High affinity choline transporter 1; experiment: human choline transporter blockers, potency – cell-based, 10-point CRC, membrane potential dye, dose response (AID 588401);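 also: membrane potential dye fluorescence of choline-evoked depolarization via CHT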
[17] = SAR analysis of small molecule activators of Apaf-1 using a LZ-Caspase-9/Caspase-3 Fluorescent Selectivity assay - Set 2.; settings: read-out: EC50_Mean
[18] = molecular target: Apoptotic protease-activating factor 1 (Homo sapiens, UniProt O14727); experiment: SAR analysis of small molecule Activators of Apaf-1 in a Fluorescent assay - set 2.; settings: read-out: EC50_Mean

Dual specificity protein kinase CLK4, sequence (Q9HAZ1 whole entry): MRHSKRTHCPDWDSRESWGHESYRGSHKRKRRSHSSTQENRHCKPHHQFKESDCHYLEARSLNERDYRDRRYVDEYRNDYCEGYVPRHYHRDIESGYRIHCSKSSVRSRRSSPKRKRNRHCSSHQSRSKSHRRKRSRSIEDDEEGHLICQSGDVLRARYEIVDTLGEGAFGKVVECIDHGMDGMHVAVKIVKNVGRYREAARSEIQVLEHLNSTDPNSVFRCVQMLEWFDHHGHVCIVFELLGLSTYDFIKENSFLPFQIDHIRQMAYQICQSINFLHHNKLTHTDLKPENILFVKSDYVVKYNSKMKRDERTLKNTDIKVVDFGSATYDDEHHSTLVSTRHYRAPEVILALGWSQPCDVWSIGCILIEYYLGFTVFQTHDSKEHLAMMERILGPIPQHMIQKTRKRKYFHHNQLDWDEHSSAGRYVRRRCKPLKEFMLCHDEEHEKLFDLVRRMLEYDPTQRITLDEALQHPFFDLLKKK

Ki [1]: 2.51 µM (active)
Ki [2]: 1.58 µM (active)
Ki [3]: 2.51 µM (active)
Structure (SMILES): CCc1cccc2c1n(CC)c(=N)n2CC(=O)c1ccc(Cl)cc1

Ki [4]: 3.98 µM (active)
Ki [5]: 1.58 µM (active)
Ki [6]: 1.26 µM (active)
Ki [7]: 3.16 µM (active)
Ki [8]: 1.58 µM (active)
Structure (SMILES): CCNC(=O)c1[nH]nc(-c2cc(Cl)c(O)cc2O)c1-c1ccc(OC)cc1

Ki [9]: > 10 µM (inactive)
Ki [10]: 6.31 µM (active)
Ki [1]: 1 µM (active)
Ki [11]: 5.01 µM (active)
Ki [12]: 3.16 µM (active)
Structure (SMILES): C(=Cc1cncc(OCCc2c[nH]c3ccccc23)c1)c1ccncc1

EC50 [13]: > 50 µM (inactive)
EC50 [14]: > 50 µM (inactive)
Structure (SMILES): O=C(c1coc(C2CC2)n1)N(C1CCCCC1)C1CCCCC1

IC50 [15]: 24.1 pM (inconclusive)
IC50 [16]: 0.00447 µM (active)
Structure (SMILES): Nc1ncnc2c1ncn2C1OC(C(=O)NC2CC2)C(O)C1O (centres undefined)

EC50 [17]: > 100 µM (inactive)
EC50 [18]: 63.6 µM (active)
Structure (SMILES): Cc1nn(CC(C)C(=O)O)c(C)c1C (centres undefined)
